Where “and” joins values, the source holds several entries; their conditions need not be identical. Equal values may be shown once. Read-outs that look alike come from different tables or passages of the source.
Legend:
Aurora A = molecular target: T1, Aurora A (Homo sapiens, UniProt O14965); experiment: Aurora Kinase A luminescent kinase assay (Kinase-Glo); assay type: biochemical; details: IC50 values (concentration of a test compound at which activity of 50% of Aurora A is inhibited), GST-tAurora A (123-401aa) fusion protein
T1 construct: GST-tAurora A (123-401aa) fusion protein obtained above; made in house; host or cells: Sf9 insect cells (baculovirus, pBacPAK8)
T1 sequence (O14965 123-401): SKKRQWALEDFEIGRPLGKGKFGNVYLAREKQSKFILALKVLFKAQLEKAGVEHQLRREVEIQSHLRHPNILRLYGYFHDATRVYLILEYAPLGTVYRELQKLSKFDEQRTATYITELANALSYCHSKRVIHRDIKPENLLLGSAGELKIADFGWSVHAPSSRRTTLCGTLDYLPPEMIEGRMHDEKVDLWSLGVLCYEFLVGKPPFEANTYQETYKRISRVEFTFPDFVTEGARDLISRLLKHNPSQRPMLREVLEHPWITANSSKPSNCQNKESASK
Protocol: The Aurora A catalytic domain with an N-terminal GST tag was constructed in pBacPAK8 plasmid and expressed in sf9 cells. […] To concentrate GST-tAurora A, buffer was replaced with Tris buffer (100 mM Tris (pH 7.5), 300 mM NaCl, 1 mM EDTA, 4 mM DTT) using Amicon ultra-15 (MWCO:30K, Millipore) to 2.4 mg/ml. After the addition of equal volume of glycerol and 0.04% Triton X-100, the proteins were stored aliquoted at −80° C.
Briefly, a test compound, enzyme, substrate-tetra(LRRWSLG), DTT and ATP were dissolved in Aur buffer (50 mM Tris-HCl pH 7.4, 10 mM NaCl, 10 mM MgCl2, and 100 μg/ml BSA) individually before the assay. […] 5 μM ATP (5 μl), 1 mM DTT (5 μl) and 0.1 mM tetra(LRRWSLG) peptide substrate (5 μl) were added into the reactions of test compounds and GST-tAurora A. The reactions were incubated at 37° C. for 90 min. 50 μl of Kinase-Glo Plus Reagent (V3771, Promega) was added into the reactions, followed by the incubation at 25° C. for 20 min.

HCT-116 cells = experiment: HCT-116 cell viability, MTS assay; assay type: cell-based; details: Homo sapiens, HCT-116, 96 h, read-out: IC50 values, HCT-116 cell viability
Protocol: HCT-116 cell viability was examined by the MTS assay (Promega, Madison, Wis., USA). 2000 HCT-116 cells in 100 μL McCoy's 5a medium were seeded in each well of a 96-well plate. After 96-h incubation with a test compound, the cells were incubated with 20 μL of a MTS/PMS mixture (MTS/PMS ratio: 20:1) for 2 h at 37° C. in a humidified incubator with 5% CO2 to allow viable cells to convert the tetrazolium salt (MTS) into formazan. The amount/concentration of formazan, which indicates the number of live cells, was determined by measuring the absorbance at 490 nm using a PerkinElmer Victor2 plate reader (PerkinElmer, Shelton, Conn., USA).

[1] = system: HCT-116 colon tumor xenograft; experiment: In vivo anticancer efficacy in colon tumor xenograft mice (injected with HCT-116); design: species or system nude mice; details: for tumor growth suppression (in words): versus VX-680 at 50 mg/kg
Protocol: In vivo anticancer efficacy of the compounds of this invention was assessed using colon tumor xenograft mice (injected with HCT-116), as described in Cancer Research 2004, 64, 4621-4628.
(§1) HCT-116 cells were injected via s.c. in nude mice to form colon tumor xenograft mice. Mice bearing tumors with a size of ˜100 mm^3 were randomly assigned to three groups: a vehicle control group (10 mice), a positive control group (10 mice), and a treatment group (21 mice). Of the treated mice, ten received Compound 3 at a daily dosage of 25 mg/kg via IV injection through the tail veins for 5 days/week for 2 consecutive weeks (days 1-5 and 8-12) and eleven received the same compound at a daily dosage of 50 mg/kg via IV injection through the tail veins for 5 consecutive days (days 1-5). The positive control mice received VX-680 (a known anti-cancer drug) at a daily dosage of 50 mg/kg, also via IV injection through the tail veins for 5 days/week for 2 consecutive weeks (days 1-5 and 8-12).
as §1, with “Compound 4” for “Compound 3”, “of 5 mg/kg and eleven received the same compound at a daily dosage of 15” for “of 25”, “and 8-12).” for “and 8-12) and eleven received the same compound at a daily dosage of 50 mg/kg via IV injection through the tail veins for 5 consecutive days (days 1-5).”, “VX-680” for “VX-680 (a known anti-cancer drug)”

| SMILES | IC50 (Aurora A) | IC50 (HCT-116 cells; 96-h incubation, MTS) | other results |
| --- | --- | --- | --- |
| COc1cc2ncnc(NCCc3ccc(NC(=O)Nc4ccccc4CN(C)C)cc3)c2cc1OC [Compound 3, 1-{4-[2-(6,7-Dimethoxy-quinazolin-4-ylamino)-ethyl]-phenyl}-3-(2-dimethylaminomethyl-phenyl)-urea] | < 1000 nM and 51 to 450 nM | < 100 nM | tumor size as % of that in the vehicle control group ([1]; 25 mg/kg daily IV, days 1-5 and 8-12, 22nd day post treatment): 35%; tumor size as % of that in the vehicle control group ([1]; 50 mg/kg daily IV, days 1-5, 22nd day post treatment): 36%; tumor growth suppression (in words) ([1]; dosages of 25 and 50 mg/kg IV): suppressed tumor growth significantly and better than VX-680 |
| CN(C)CCCOc1ccc2c(NCCc3ccc(NC(=O)Nc4ccccc4)cc3)ncnc2c1 [Compound 4, 1-(4-{2-[7-(3-Dimethylamino-propoxy)-quinazolin-4-ylamino]-ethyl}-phenyl)-3-phenyl-urea] | < 1000 nM and 51 to 450 nM | < 100 nM | tumor size as % of that in the vehicle control group ([1]; 5 mg/kg daily IV, days 1-5 and 8-12, 22nd day post treatment): 67%; tumor size as % of that in the vehicle control group ([1]; 15 mg/kg daily IV, days 1-5 and 8-12, 22nd day post treatment): 37%; tumor growth suppression (in words) ([1]; dosage of 15 mg/kg IV): suppressed tumor growth significantly and better than VX-680 |
| COc1cc2ncnc(NCCc3ccc(NC(=O)Nc4ccc(F)c(F)c4)cc3)c2cc1OC [Compound 247] | 1 to 50 nM and < 1000 nM | 101 to 850 nM |  |
| O=C(Nc1ccccc1)Nc1ccc(CCNc2ncnc3ccccc23)cc1 [Compound 248] | 51 to 450 nM and < 1000 nM |  | IC50 (HCT-116 cells): < 100 nM |
| O=C(Nc1ccc(CCNc2ncnc3oc(-c4ccncc4)nc23)cc1)Nc1cccc(F)c1 [Compound 250] | 51 to 450 nM and < 1000 nM | 101 to 850 nM |  |
| O=C(Nc1ccccc1)Nc1ccc(CCNc2ncnc3cc(N4CCOCC4)ccc23)cc1 [Compound 251] | 1 to 50 nM and < 1000 nM | < 100 nM |  |
| COc1cc2ncnc(NCCc3cnc(NC(=O)Nc4cccc(Br)c4)s3)c2cc1OC [Compound 252] | 1 to 50 nM and < 1000 nM | 101 to 850 nM |  |
| O=C(Nc1ccccc1)Nc1ccc(CCNc2ncnc3cc(F)ccc23)cc1 [Compound 253] | 51 to 450 nM and < 1000 nM | < 100 nM |  |
| Cc1cc(Nc2cc(N3CCN(C)CC3)nc(Sc3ccc(NC(=O)C4CC4)cc3)n2)n[nH]1 [VX-680, reference compound] |  |  | tumor size as % of that in the vehicle control animals ([1]; 50 mg/kg daily IV, days 1-5 and 8-12, 22nd day post treatment): 50% |

— patent US9006252B2, “Fused multicyclic compounds as protein kinase inhibitors” (National Health Research Institutes, priority 2008, dated 2015)
